Measurements from PubChem BioAssay AID1919016 (Molecular Pharmacology Branch, DTP, NCI, 2023).

Test system: NCI-H196 complex spheroid growth, percent test/control
Assay: Anticancer human tumor NCI-H196 cell line growth inhibition [AhR];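 note: seven days of drug exposure starting three days after plating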;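 for viability, T/C: 100% = DMSO vehicle control wells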
Conditions: for IC50: curve of first compound; for viability, T/C: stronger effect = lower value
Outline: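 Complex tumor spheroids co-cultured with HUVEC and human MSC stroma; AhR antagonists tested in combination with standard-of-care and investigational agents. Top concentration at or near clinical Cmax (else 10 microM), half-log dilutions; growth expressed as percent test/control.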

[1] = second compound 0.1 µM, first compound 0.0316 µM
[2] = second compound 0.1 µM, first compound 0.1 µM
[3] = second compound 0.1 µM, first compound 0.316 µM
[4] = second compound 0.1 µM, first compound 1 µM
[5] = second compound 0.1 µM, first compound 3.16 µM
[6] = second compound 0.1 µM, first compound 10 µM
[7] = second compound 0.316 µM, first compound 0.0316 µM
[8] = second compound 0.316 µM, first compound 0.1 µM
[9] = second compound 0.316 µM, first compound 0.316 µM
[10] = second compound 0.316 µM, first compound 1 µM
[11] = second compound 0.316 µM, first compound 3.16 µM
[12] = second compound 0.316 µM, first compound 10 µM
[13] = second compound 1 µM, first compound 0.0316 µM
[14] = second compound 1 µM, first compound 0.1 µM
[15] = second compound 1 µM, first compound 0.316 µM
[16] = second compound 1 µM, first compound 1 µM
[17] = second compound 1 µM, first compound 3.16 µM
[18] = second compound 1 µM, first compound 10 µM
[19] = second compound 3.16 µM, first compound 0.0316 µM
[20] = second compound 3.16 µM, first compound 0.1 µM
[21] = second compound 3.16 µM, first compound 0.316 µM
[22] = second compound 3.16 µM, first compound 1 µM
[23] = second compound 3.16 µM, first compound 3.16 µM
[24] = second compound 3.16 µM, first compound 10 µM
[25] = second compound 10 µM, first compound 0.0316 µM
[26] = second compound 10 µM, first compound 0.1 µM
[27] = second compound 10 µM, first compound 0.316 µM
[28] = second compound 10 µM, first compound 1 µM
[29] = second compound 10 µM, first compound 3.16 µM
[30] = second compound 10 µM, first compound 10 µM
[31] = second compound 0.1 µM, first compound 0.000316 µM
[32] = second compound 0.1 µM, first compound 0.001 µM
[33] = second compound 0.1 µM, first compound 0.00316 µM
[34] = second compound 0.1 µM, first compound 0.01 µM
[35] = second compound 0.316 µM, first compound 0.000316 µM
[36] = second compound 0.316 µM, first compound 0.001 µM
[37] = second compound 0.316 µM, first compound 0.00316 µM
[38] = second compound 0.316 µM, first compound 0.01 µM
[39] = second compound 1 µM, first compound 0.000316 µM
[40] = second compound 1 µM, first compound 0.001 µM
[41] = second compound 1 µM, first compound 0.00316 µM
[42] = second compound 1 µM, first compound 0.01 µM
[43] = second compound 3.16 µM, first compound 0.000316 µM
[44] = second compound 3.16 µM, first compound 0.001 µM
[45] = second compound 3.16 µM, first compound 0.00316 µM
[46] = second compound 3.16 µM, first compound 0.01 µM
[47] = second compound 10 µM, first compound 0.000316 µM
[48] = second compound 10 µM, first compound 0.001 µM
[49] = second compound 10 µM, first compound 0.00316 µM
[50] = second compound 10 µM, first compound 0.01 µM

SMILES	IC50 (second compound 0.1 µM)	IC50 (second compound 0.316 µM)	IC50 (second compound 1 µM)	IC50 (second compound 3.16 µM)	IC50 (second compound 10 µM)	viability, T/C [1]	viability, T/C [2]	viability, T/C [3]	viability, T/C [4]	viability, T/C [5]	viability, T/C [6]	viability, T/C [7]	viability, T/C [8]	viability, T/C [9]	viability, T/C [13]	viability, T/C [14]	viability, T/C [19]	viability, T/C [20]	viability, T/C [25]	viability, T/C [26]	also measured
NS(=O)(=O)OCC1CC(n2ccc3c(NC4CCc5ccccc54)ncnc32)CC1O (stereo not given) + Cc1ccccc1N=Nc1ccc(NC(=O)c2ccnn2C)c(C)c1	> 10000 nM	> 10000 nM	> 10000 nM	> 10000 nM	2070 nM	83.7%	84.2%	76.6%	55.9%	70.2%	70%	79.7%	81.2%	81.5%	90.1%	87.6%	82.4%	90.7%	83.8%	87.1%	viability, T/C [10]: 67.4%; viability, T/C [11]: 74.6%; viability, T/C [12]: 61%; viability, T/C [15]: 85.9%; viability, T/C [16]: 60.6%; viability, T/C [17]: 73.7%; viability, T/C [18]: 60.8%; viability, T/C [21]: 81.6%; viability, T/C [22]: 61.5%; viability, T/C [23]: 60.9%; viability, T/C [24]: 58.8%; viability, T/C [27]: 68.2%; viability, T/C [28]: 55.5%; viability, T/C [29]: 46.7%; viability, T/C [30]: 47.4%
CC(C)c1c(-c2ccccc2)nc2c(C#N)c[nH]n2c1=O + Cc1cncc(-c2nc(NCCc3c[nH]c4ccccc34)c3ncn(C(C)C)c3n2)c1	> 10000 nM	> 10000 nM	> 10000 nM	> 10000 nM	> 10000 nM	107%	110%	105%	100%	117%	106%	103%	120%	113%	120%	112%	116%	117%	75.9%	86.7%	viability, T/C [10]: 109%; viability, T/C [11]: 113%; viability, T/C [12]: 107%; viability, T/C [15]: 115%; viability, T/C [16]: 103%; viability, T/C [17]: 112%; viability, T/C [18]: 101%; viability, T/C [21]: 119%; viability, T/C [22]: 102%; viability, T/C [23]: 115%; viability, T/C [24]: 112%; viability, T/C [27]: 89.5%; viability, T/C [28]: 86.9%; viability, T/C [29]: 80.7%; viability, T/C [30]: 80.7%
NS(=O)(=O)OCC1CC(n2ccc3c(NC4CCc5ccccc54)ncnc32)CC1O (stereo not given) + CC(CO)NC(=O)c1cc(-c2ccc(Cl)cc2)nn(-c2cnn(C)c2)c1=O	> 10000 nM	> 10000 nM	> 10000 nM	> 10000 nM	> 10000 nM	85.4%	79.8%	67.1%	61.3%	62.9%	60.2%	82.8%	85.2%	68.8%	87.2%	74.4%	81.4%	83.7%	90.7%	96.9%	viability, T/C [10]: 59.2%; viability, T/C [11]: 52.5%; viability, T/C [12]: 55.7%; viability, T/C [15]: 67.6%; viability, T/C [16]: 57.5%; viability, T/C [17]: 61.2%; viability, T/C [18]: 51.4%; viability, T/C [21]: 71.1%; viability, T/C [22]: 56.4%; viability, T/C [23]: 62.9%; viability, T/C [24]: 55.4%; viability, T/C [27]: 83.8%; viability, T/C [28]: 59.2%; viability, T/C [29]: 54%; viability, T/C [30]: 52.4%
Cn1ncnc1C1c2n[nH]c(=O)c3cc(F)cc(c23)NC1c1ccc(F)cc1 (stereo not given) + Cc1ccccc1N=Nc1ccc(NC(=O)c2ccnn2C)c(C)c1	> 100 nM	> 100 nM	> 100 nM	> 100 nM	> 100 nM	102%	103%	–	–	–	–	101%	104%	–	102%	106%	93.5%	102%	92.8%	92.6%	viability, T/C [31]: 96.3%; viability, T/C [32]: 112%; viability, T/C [33]: 105%; viability, T/C [34]: 101%; viability, T/C [35]: 108%; viability, T/C [36]: 107%; viability, T/C [37]: 108%; viability, T/C [38]: 106%; viability, T/C [39]: 102%; viability, T/C [40]: 102%; viability, T/C [41]: 109%; viability, T/C [42]: 107%; viability, T/C [43]: 94.2%; viability, T/C [44]: 108%; viability, T/C [45]: 112%; viability, T/C [46]: 98.2%; viability, T/C [47]: 94.2%; viability, T/C [48]: 102%; viability, T/C [49]: 96.7%; viability, T/C [50]: 94.7%

The next lines start with results.

IC50 (second compound 0.1 µM)	IC50 (second compound 0.316 µM)	IC50 (second compound 1 µM)	IC50 (second compound 3.16 µM)	IC50 (second compound 10 µM)	SMILES	viability, T/C [1]	viability, T/C [2]	viability, T/C [3]	viability, T/C [4]	viability, T/C [5]	viability, T/C [6]	viability, T/C [7]	viability, T/C [8]	viability, T/C [9]	viability, T/C [13]	viability, T/C [14]	viability, T/C [19]	viability, T/C [20]	viability, T/C [25]	viability, T/C [26]	also measured
943 nM	1080 nM	967 nM	895 nM	732 nM	COc1cccc2c1C(=O)c1c(O)c3c(c(O)c1C2=O)CC(O)(C(=O)CO)CC3OC1CC(N)C(O)C(C)O1 (stereo not given) + CC(CO)NC(=O)c1cc(-c2ccc(Cl)cc2)nn(-c2cnn(C)c2)c1=O	109%	105%	85.6%	52.8%	1.78%	0.87%	102%	116%	100%	110%	116%	113%	110%	119%	122%	viability, T/C [10]: 53.8%; viability, T/C [11]: 1.55%; viability, T/C [12]: 1.77%; viability, T/C [15]: 101%; viability, T/C [16]: 49.6%; viability, T/C [17]: 1.06%; viability, T/C [18]: 2.36%; viability, T/C [21]: 104%; viability, T/C [22]: 44.4%; viability, T/C [23]: 0.77%; viability, T/C [24]: 1.04%; viability, T/C [27]: 89.9%; viability, T/C [28]: 36.6%; viability, T/C [29]: 0.56%; viability, T/C [30]: 2.67%
> 100 nM	> 100 nM	> 100 nM	> 100 nM	> 100 nM	CC[C@@]1(O)C(=O)OCc2c1cc1n(c2=O)Cc2cc3c(CN(C)C)c(O)ccc3nc2-1 + Cc1cncc(-c2nc(NCCc3c[nH]c4ccccc34)c3ncn(C(C)C)c3n2)c1	96.8%	105%	–	–	–	–	94.7%	99.2%	–	101%	89.8%	104%	95.2%	83.9%	77.2%	viability, T/C [31]: 105%; viability, T/C [32]: 95.5%; viability, T/C [33]: 83%; viability, T/C [34]: 88.8%; viability, T/C [35]: 101%; viability, T/C [36]: 100%; viability, T/C [37]: 98.8%; viability, T/C [38]: 95.5%; viability, T/C [39]: 108%; viability, T/C [40]: 103%; viability, T/C [41]: 91%; viability, T/C [42]: 92.3%; viability, T/C [43]: 104%; viability, T/C [44]: 101%; viability, T/C [45]: 96.7%; viability, T/C [46]: 88.8%; viability, T/C [47]: 82.8%; viability, T/C [48]: 97.7%; viability, T/C [49]: 95.7%; viability, T/C [50]: 74.1%
